Experimental data as given in patent EP1770089A1, “Pyranodibenzofuran derivatives with antifungal and antibacterial activity” (priority 2005, dated 2007).
Converted amounts (≈) assume the structure as drawn.

Columns and labels:
[1] = test system: M. tuberculosis INH resistant (2003/1762); test: microbe, parasite or virus in culture; assay type: cell-based; details: Mycobacterium tuberculosis
[2] = test system: M. tuberculosis RIF resistant (2004/0499); test: microbe, parasite or virus in culture; assay type: cell-based; details: Mycobacterium tuberculosis

CC1(C)C=Cc2c(ccc3oc4ccccc4c23)O1 [Compound 9, 3,3-dimethyl-3H-benzofuro[3,2-f][1]benzopyran]
MIC99 [1]: 5 µg/mL (≈ 20 µM)
MIC99 [2]: 5 µg/mL (≈ 20 µM)

CC1(C)CCc2c(ccc3oc4ccccc4c23)O1 [Compound 16, 1,2-dihydro-3,3-dimethyl-3H-benzofuro[3,2-f][1]benzopyran]
MIC99 [1]: 1 µg/mL (≈ 3.96 µM)
MIC99 [2]: 1 µg/mL (≈ 3.96 µM)

NNC(=O)c1ccncc1 [INH, isoniazid, reference compound]
MIC99 [1]: 5 µg/mL (≈ 36.5 µM)
MIC99 [2]: 0.1 µg/mL (≈ 0.729 µM)
